Legend:
[1] = system: T. cruzi Tulahuen trypomastigotes; experiment: T. cruzi trypomastigote assay (Cell Titer-Glo viability, ATP luminescence); assay type: cell-based, Trypanosoma cruzi; details: for Trypomastigotes pIC50 48 hours: 48 hours incubation; for Trypomastigotes pIC50 48 hours / Trypomastigotes pIC50 72 hours: pIC50 = -log10 IC50 in molar units; for Trypomastigotes pIC50 72 hours: 72 hours incubation; for 72 pIC50 (trypomastigotes, raw data of Fig 1D): 72 hours, plotted values, censored values given without sign; for 48 pIC50 / 72 pIC50: trypomastigote assay; for 48 pIC50: 48 h; for 72 pIC50: 72 h
Procedure, shortened: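 Tulahuen trypomastigotes from infected LLC-MK2 culture supernatants (days 5–8) plated at 5 × 10^4 per well in DMEM/2% FBS with compound at 5 μM single-shot final or in dose response. Viability by CellTiter-Glo ATP luminescence after 10 min at room temperature, normalised to no-cell (100%) and DMSO (0%) controls.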

[2] = system: T. cruzi intracellular amastigotes in H9c2 cells; experiment: Rate-of-Kill (RoK) high-content imaging assay, amastigotes per cell (AM/CELL) and curve descriptors; assay type: cell-based, Trypanosoma cruzi; design: key to ME_24h / ME_48h / ME_72h: % reduction in parasite burden (cidal response); t50pct_MCC50 / t50pct_Cmax: unit not given here; details: for ME_24h: 24h; for ME_48h: 48h; for ME_72h: 72h; for t50%_Cmax / tlag_Cmax / t50pct_Cmax: at Cmax; for ME_24h (%): maximum effect at 24 h; for ME_24h (%) / ME_48h (%) / ME_72h (%): RoK assay; for ME_48h (%): maximum effect at 48 h; for ME_72h (%): maximum effect at 72 h; for ME 24h (maximum effect at 24 hours, intracellular amastigotes): maximum percentage of parasite burden reduction reached by any concentration
Procedure, shortened: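 H9c2 cardiomyocytes infected with T. cruzi trypomastigotes (MOI 8, 18 h), then compounds tested at 5 μM single shot or 11-point 1/3 dilution from 50 μM. DRAQ5-stained nuclei imaged over a time course. Amastigotes per cell normalised to infected cells at 4 h (0%) and non-infected cells (100%).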

## Cc1[nH]c2ccccc2c(=O)c1Cc1c(C)[nH]c2ccccc2c1=O [TCMDC-143490]
[1]
  Trypomastigotes pIC50 48 hours: 5.7
  Trypomastigotes pIC50 72 hours: 4.8
[2]; figure 5
  ME_24h: 37.5404
  ME_48h: 50.8304
  ME_72h: 51.8782
  t50pct_Cmax: 48
  tlag_Cmax: 4
  MCC50: 50 µM
  MCCE: 0.007621
[2]; RoK curve descriptor
  MCC50: 50.0 µM
  MCCE: 0.01 µM
[2]; Time 4, sheet figure 4 A
  AM/CELL NORM: 13.7757
[2]; Time 24, sheet figure 4 A
  AM/CELL NORM: 37.5404
[2]; Time 48, sheet figure 4 A
  AM/CELL NORM: 50.8304
[2]; Time 72, sheet figure 4 A
  AM/CELL NORM: 51.8782
[2]
  t50%_Cmax: 48.0 h
  tlag_Cmax: 4.0 h
  ME_24h (%): 37.5%
  ME_48h (%): 50.8%
  ME_72h (%): 51.9%
  ME 24h (maximum effect at 24 hours, intracellular amastigotes): 37.5404%
[2]; at MCC50
  t50%_MCC50: 48.0 h
  tlag_MCC50: 4.0 h
[2]; at MCC50, figure 5
  t50pct_MCC50: 48
  tlag_MCC50: 4

## CNc1cc(C)nc(C2CN(C(=O)c3n[nH]c4ccccc34)CCO2)c1 (stereo not shown) [TCMDC-143494]
[1]
  Trypomastigotes pIC50 48 hours: 5.9
  Trypomastigotes pIC50 72 hours: 5.5
[2]; figure 5
  ME_24h: 32.4456
  ME_48h: 71.1038
  ME_72h: 67.5793
  t50pct_Cmax: 48
  tlag_Cmax: 4
  MCC50: 50 µM
  MCCE: 1.852
[2]; RoK curve descriptor
  MCC50: 50.0 µM
  MCCE: 1.9 µM
[2]; Time 4, sheet figure 4 A
  AM/CELL NORM: 7.648
[2]; Time 24, sheet figure 4 A
  AM/CELL NORM: 27.7451
[2]; Time 48, sheet figure 4 A
  AM/CELL NORM: 71.1038
[2]; Time 72, sheet figure 4 A
  AM/CELL NORM: 67.5793
[2]
  t50%_Cmax: 48.0 h
  tlag_Cmax: 4.0 h
  ME_24h (%): 32.5%
  ME_48h (%): 71.1%
  ME_72h (%): 67.6%
  ME 24h (maximum effect at 24 hours, intracellular amastigotes): 32.4456%
[2]; at MCC50
  t50%_MCC50: 48.0 h
  tlag_MCC50: 4.0 h
[2]; at MCC50, figure 5
  t50pct_MCC50: 48
  tlag_MCC50: 4

## Cc1nccn1C1CCCN(C(=O)c2cc3c(F)cccc3s2)C1 (stereo not shown) [TCMDC-143498]
[1]
  Trypomastigotes pIC50 48 hours: 4.7
  Trypomastigotes pIC50 72 hours: 4.7
  72 pIC50 (trypomastigotes, raw data of Fig 1D): 4.7
[1]; figure 1A
  48 pIC50: 4.7
  72 pIC50: 4.7
[1]; figure 1B
  72 pIC50: 4.7
[2]; figure 5
  ME_24h: 32.6582
  ME_48h: 54.1455
  ME_72h: 68.2465
  t50pct_Cmax: 48
  tlag_Cmax: 8
  MCCE: 1.852
[2]; RoK curve descriptor
  MCC50: 4.6 µM
  MCCE: 1.9 µM
[2]; Time 4, figure 4 A
  AM/CELL NORM: 21.9505
[2]; Time 24, figure 4 A
  AM/CELL NORM: 50.5271
[2]; Time 48, figure 4 A
  AM/CELL NORM: 69.4926
[2]; Time 72, figure 4 A
  AM/CELL NORM: 61.0854
[2]
  t50%_Cmax: 48.0 h
  tlag_Cmax: 8.0 h
  ME_24h (%): 32.7%
  ME_48h (%): 54.2%
  ME_72h (%): 68.3%
  ME 24h (maximum effect at 24 hours, intracellular amastigotes): 52.5921%
[2]; at MCC50
  t50%_MCC50: 72.0 h
  tlag_MCC50: 24.0 h
[2]; at MCC50, figure 5
  t50pct_MCC50: 72
  tlag_MCC50: 33.6
[2]; figure 5, in µM
  MCC50: 13.7037

## Cc1cc2cncn2c(C2CCCCN2C(=O)c2cccs2)n1 (stereo not shown) [TCMDC-143500]
[1]
  Trypomastigotes pIC50 48 hours: < 4.3
  Trypomastigotes pIC50 72 hours: < 4.3
  72 pIC50 (trypomastigotes, raw data of Fig 1D): < 4.3
[1]; figure 1A
  48 pIC50: < 4.3
  72 pIC50: < 4.3
[1]; figure 1B
  72 pIC50: < 4.3
[2]; figure 5
  ME_24h: -103.212
  ME_48h: -13.304
  ME_72h: 53.284
  t50pct_Cmax: 72
  tlag_Cmax: 24
  MCCE: 0.2058
[2]; RoK curve descriptor
  MCC50: 16.7 µM
  MCCE: 0.2 µM
[2]; Time 4, sheet figure 4 A
  AM/CELL NORM: 8.792
[2]; Time 24, sheet figure 4 A
  AM/CELL NORM: -103.212
[2]; Time 48, sheet figure 4 A
  AM/CELL NORM: -13.304
[2]; Time 72, sheet figure 4 A
  AM/CELL NORM: 50.5477
[2]
  t50%_Cmax: 72.0 h
  tlag_Cmax: 24.0 h
  ME_24h (%): -103.2%
  ME_48h (%): -13.3%
  ME_72h (%): 53.3%
  ME 24h (maximum effect at 24 hours, intracellular amastigotes): -103.212%
[2]; at MCC50
  t50%_MCC50: 72.0 h
  tlag_MCC50: 24.0 h
[2]; at MCC50, figure 5
  t50pct_MCC50: 72
  tlag_MCC50: 24
[2]; figure 5, in µM
  MCC50: 16.6667

## Cn1cncc1CN1CCC2(CC1)COC(Cc1ccccc1)C2 (stereo not shown) [TCMDC-143502]
[1]
  Trypomastigotes pIC50 48 hours: < 4.3
  Trypomastigotes pIC50 72 hours: < 4.3
  72 pIC50 (trypomastigotes, raw data of Fig 1D): < 4.3
[1]; figure 1A
  48 pIC50: < 4.3
  72 pIC50: < 4.3
[1]; figure 1B
  72 pIC50: < 4.3
[2]; figure 5
  ME_24h: -3.518
  ME_48h: 29.7799
  ME_72h: 64.8887
  t50pct_Cmax: 72
  tlag_Cmax: 48
  MCCE: 1.852
[2]; RoK curve descriptor
  MCC50: 5.6 µM
  MCCE: 1.9 µM
[2]; Time 4, sheet figure 4 A
  AM/CELL NORM: 12.5806
[2]; Time 24, sheet figure 4 A
  AM/CELL NORM: -3.518
[2]; Time 48, sheet figure 4 A
  AM/CELL NORM: -12.3342
[2]; Time 72, sheet figure 4 A
  AM/CELL NORM: 16.2947
[2]
  tlag_Cmax: 48.0 h
  ME_24h (%): -3.5%
  ME_48h (%): 29.8%
  ME_72h (%): 64.9%
  ME 24h (maximum effect at 24 hours, intracellular amastigotes): -3.518%
[2]; at MCC50
  t50%_MCC50: 72.0 h
  tlag_MCC50: 24.0 h
[2]; at MCC50, figure 5
  t50pct_MCC50: 72
  tlag_MCC50: 24
[2]; figure 5, in µM
  MCC50: 5.556

## CN(Cc1ccc(C(N)=O)cc1)C(c1ccc(F)cc1)c1cccnc1 (stereo not shown) [TCMDC-143504]
[1]
  Trypomastigotes pIC50 48 hours: < 4.3
  Trypomastigotes pIC50 72 hours: < 4.3
  72 pIC50 (trypomastigotes, raw data of Fig 1D): < 4.3
[1]; figure 1A
  48 pIC50: < 4.3
  72 pIC50: < 4.3
[1]; figure 1B
  72 pIC50: < 4.3
[2]; figure 5
  ME_24h: -95.1621
  ME_48h: -135.708
  ME_72h: 0.6882
  t50pct_Cmax: 72
  tlag_Cmax: 48
  MCC50: 50 µM
  MCCE: 0.6173
[2]; RoK curve descriptor
  MCCE: 0.6 µM
[2]; Time 4, sheet figure 4 A
  AM/CELL NORM: 2.577
[2]; Time 24, sheet figure 4 A
  AM/CELL NORM: -143.385
[2]; Time 48, sheet figure 4 A
  AM/CELL NORM: -163.001
[2]; Time 72, sheet figure 4 A
  AM/CELL NORM: -44.3312
[2]; at MCC50, figure 5
  t50pct_MCC50: 72
  tlag_MCC50: 72
[2]
  ME_24h (%): -95.2%
  ME_48h (%): -135.7%
  ME_72h (%): 0.7%
  ME 24h (maximum effect at 24 hours, intracellular amastigotes): -95.1621%
